Target: T1, sodium-proton exchanger of subtype 3 (NHE3) (Homo sapiens, UniProt P48764)
T1 construct: expressed in transfected cells
T1 sequence (P48764 26-834): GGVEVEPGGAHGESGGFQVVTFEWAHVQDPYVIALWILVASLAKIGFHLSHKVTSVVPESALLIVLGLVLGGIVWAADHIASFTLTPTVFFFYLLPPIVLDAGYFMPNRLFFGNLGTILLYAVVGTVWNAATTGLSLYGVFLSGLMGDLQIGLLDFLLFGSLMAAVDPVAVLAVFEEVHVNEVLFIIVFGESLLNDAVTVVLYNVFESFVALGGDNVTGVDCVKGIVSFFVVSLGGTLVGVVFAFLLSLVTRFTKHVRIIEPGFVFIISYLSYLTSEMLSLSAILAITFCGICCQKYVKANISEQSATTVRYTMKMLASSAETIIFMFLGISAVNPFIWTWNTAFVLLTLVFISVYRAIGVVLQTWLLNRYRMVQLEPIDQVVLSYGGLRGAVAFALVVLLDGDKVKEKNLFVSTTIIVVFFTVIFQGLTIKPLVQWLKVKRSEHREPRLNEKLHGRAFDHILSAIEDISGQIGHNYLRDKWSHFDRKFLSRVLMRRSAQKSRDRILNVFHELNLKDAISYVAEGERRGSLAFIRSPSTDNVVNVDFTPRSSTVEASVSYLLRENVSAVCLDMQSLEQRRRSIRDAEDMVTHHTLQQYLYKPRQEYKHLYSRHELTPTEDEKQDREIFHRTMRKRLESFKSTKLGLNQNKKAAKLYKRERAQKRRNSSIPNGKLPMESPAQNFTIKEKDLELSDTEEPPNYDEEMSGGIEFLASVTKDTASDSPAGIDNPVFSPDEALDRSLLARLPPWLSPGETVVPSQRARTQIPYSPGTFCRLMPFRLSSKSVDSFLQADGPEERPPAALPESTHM
Assay: Recovery of intracellular pH (pHi) after acidification in LAP1 cells stably expressing NHE3 (BCECF fluorescence, FLIPR)
Assay type: cell-based
Conditions: LAP1 cells stably expressing NHE3; pH recovery after acidification; range 1 is % inhibition at 10 μM; read-out: Activity range (inhibitory effect on NHE3)
Experimental: In this assay, the recovery of the intracellular pH (pHi) of LAP1 cells which stably express the sodium-proton exchanger of subtype 3 (NHE3) after acidification was determined. The recovery occurs even under bicarbonate-free conditions with functional NHE3. To this end, the pHi was determined using the pH-sensitive fluorescent dye BCECF (Molecular Probes, Eugene, Oreg., USA, employing the precursors BCECF-AM). The cells were initially incubated with BCECF (5 μM BCECF-AM) in NH4Cl buffer (NH4Cl buffer: 115 mM cholineCl, 20 mM NH4Cl, 5 mM KCl, 1 mM CaCl2, 1 mM MgCl2, 20 mM Hepes, 5 mM glucose, a pH of 7.4 was adjusted with 1 M KOH). The intracellular acidification was induced by washing the cells incubated in NH4Cl buffer with NH4Cl-free buffer (133.8 mM choline chloride, 4.7 mM KCl, 1.25 mM CaCl2, 1.25 mM MgCl2, 0.97 mM K2HPO4, 0.23 mM KH2PO4, 5 mM Hepes, 5 mM glucose, a pH of 7.4 was adjusted with 1 M KOH). After the washing step, 90 μl of the NH4Cl-free buffer were left on the cells. The pH recovery was started by adding 90 μl of Na^+-containing buffer (133.8 mM NaCl, 4.7 mM KCl, 1.25 mM CaCl2, 1.25 mM MgCl2, 0.97 mM Na2HPO4, 0.23 mM NaH2PO4, 10 mM Hepes, 5 mM glucose, a pH of 7.4 was adjusted with 1 M NaOH) in a measuring instrument (FLIPR, “Fluorometric Imaging Plate Reader”, Molecular Devices, Sunnyvale, Calif., USA). The BCECF fluorescence was determined with an excitation wavelength of 498 nm and the FLIPR emission filter 1 (bandpass from 510 to 570 nm). The subsequent changes in fluorescence as a measure of pH recovery were recorded for two minutes. To calculate the NHE3-inhibitory power of the tested substances, the cells were initially investigated in buffers with which complete or absolutely no pH recovery took place. For complete pH recovery (100%), the cells were incubated in Na^+-containing buffer (see above), and to determine the 0% value were incubated in Na^+-free buffer (see above). The substances to be tested were made up in Na^+-containing buffer. The recovery of the intracellular pH at each tested concentration of a substance was expressed as percent of the maximum recovery.
The IC50 of the respective substance for NHE3 was calculated from the percentages of pH recovery using the program XLFit (idbs, Surrey, UK).

Structure (SMILES)	inhibition at 10 µM [%]	IC50 [nM]
CS(=O)(=O)c1ccc(O[C@H]2c3cc(F)ccc3C[C@@H]2N2CCN(CC#N)CC2)cc1 (racemic) [Example 242, {4-[rac-trans-(1,2)-6-fluoro-1-(4-methanesulfonylphenoxy)indan-2-yl]piperazin-1-yl}acetonitrile]	20 to 50	
CS(=O)(=O)c1ccc(O[C@H]2c3cc(Cl)cc(Cl)c3C[C@@H]2N2CCC[C@H]2CO)cc1 [Example 228, {(S)-1-[trans-(1S,2S)-4,6-dichloro-1-(4-methanesulfonylphenoxy)indan-2-yl]pyrrolidin-2-yl}methanol]		1000 to 10000
CS(=O)(=O)c1ccc(O[C@H]2c3ccccc3C[C@@H]2CN2CCCC2)cc1 (racemic) [Example 274, 1-[rac-trans-(1,2)-1-(4-methanesulfonylphenoxy)indan-2-ylmethyl]pyrrolidine]		1000 to 10000
N#Cc1ccc(O[C@H]2c3cc(Cl)cc(Cl)c3C[C@@H]2N2CCC2)c(F)c1 [Example 454, 4-((1S,2S)-2-azetidin-1-yl-4,6-dichloroindan-1-yloxy)-3-fluorobenzonitrile]	20 to 50	
NCCc1c[nH]c2ccc(O[C@H]3c4ccccc4CC[C@@H]3N3CCC[C@H](N)C3)cc12 (racemic) [Example 201, (S)-1-{rac-trans-(1,2)-1-[3-(2-aminoethyl)-1H-indol-5-yloxy]-1,2,3,4-tetrahydronaphthalen-2-yl}piperidin-3-ylamine]		1000 to 10000
NC(=O)c1cc(Cl)ccc1O[C@H]1c2ccccc2CC[C@@H]1N1CCC[C@H](N)C1 (racemic) [Example 370, 2-[rac-trans-(1,2)-2-((S)-3-aminopiperidin-1-yl)-1,2,3,4-tetrahydronaphthalen-1-yloxy]-5-chlorobenzamide]		< 1000
NC(=O)c1ccc(O[C@@H]2c3ccccc3C[C@H]2N2CCC(N)C2)cc1 (mixture of isomers) [Example 544, 4-[rac-trans-(1,2)-2-(3-aminopyrrolidin-1-yl)indan-1-yloxy]benzamide]		1000 to 10000
Cc1ccc(O[C@H]2c3ccccc3CC[C@@H]2N2CCC[C@H](N)C2)cc1Cl (racemic) [Example 161, (S)-1-[rac-trans-(1,2)-1-(3-chloro-4-methylphenoxy)-1,2,3,4-tetrahydronaphthalen-2-yl]piperidin-3-ylamine]	20 to 50	
NC(=O)c1cccc(O[C@@H]2c3ccccc3C[C@H]2N2CCC[C@@H](N)C2)c1 (racemic) [Example 411, 3-[rac-trans-(1,2)-2-((R)-3-aminopiperidin-1-yl)indan-1-yloxy]benzamide]		< 1000
NS(=O)(=O)c1ccc(O[C@H]2c3cc(Cl)cc(Cl)c3C[C@@H]2N2CCCC2)cc1 [Example 457, 4-((1S,2S)-4,6-dichloro-2-pyrrolidin-1-ylindan-1-yloxy)benzenesulfonamide]		< 1000
N[C@@H]1CCCN([C@@H]2Cc3ccccc3[C@H]2Oc2ccnc3ccccc23)C1 (racemic) [Example 88, (R)-1-[rac-trans-(1,2)-1-(quinolin-4-yloxy)indan-2-yl]piperidin-3-ylamine]		1000 to 10000
COc1cccc(CC#N)c1O[C@H]1c2ccccc2CC[C@@H]1N1CCOCC1 (racemic) [Example 213, [3-methoxy-2-(rac-trans-(1,2)-2-morpholin-4-yl-1,2,3,4-tetrahydronaphthalen-1-yloxy)phenyl]acetonitrile]	20 to 50	
COc1cccc(F)c1O[C@@H]1c2ccccc2C[C@H]1N1CCC(CN)CC1 (racemic) [Example 604, C-{1-[rac-trans-(1,2)-1-(2-fluoro-6-methoxyphenoxy)indan-2-yl]piperidin-4-yl}methylamine]		< 1000
CS(=O)(=O)c1ccc(O[C@H]2c3cc(Cl)cc(Cl)c3C[C@@H]2N2CC[C@H](F)C2)cc1 [Example 196, (S)-1-[trans-(1S,2S)-4,6-dichloro-1-(4-methanesulfonylphenoxy)indan-2-yl]-3-fluoropyrrolidine]		< 1000

From US8822449B2, “Substituted aminoindanes and analogs thereof, and the pharmaceutical use thereof” (Sanofi, priority 2008, dated 2014)
